Assay results published in publication PMC10762035, “Molecular basis of human trace amine-associated receptor 1 activation” (Nature Communications, 2024).
Residue numbers refer to the chain shown, from its start. Several values for one entry are separate records, joined by “and”; a condition that tells them apart may be missing. Equal values may be shown once. Read-outs that look alike come from different tables or passages of the source.

How the values were obtained:
Type in all cases: cell-based
hTA1 W264F = molecular target: T1, hTA1 W264F (Homo sapiens, UniProt Q96RJ0, W264F); test: GloSensor cAMP accumulation assay, W264F mutant;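 note: cells transiently transfected with receptor plus GloSensor, luminescence read 30 min after agonist addition at room temperature, concentration-response curves fitted by log(agonist) vs response regression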
T1 construct: expressed in transfected cells; host or cells: HEK293T
T1 sequence (Q96RJ0 1-339 W264F): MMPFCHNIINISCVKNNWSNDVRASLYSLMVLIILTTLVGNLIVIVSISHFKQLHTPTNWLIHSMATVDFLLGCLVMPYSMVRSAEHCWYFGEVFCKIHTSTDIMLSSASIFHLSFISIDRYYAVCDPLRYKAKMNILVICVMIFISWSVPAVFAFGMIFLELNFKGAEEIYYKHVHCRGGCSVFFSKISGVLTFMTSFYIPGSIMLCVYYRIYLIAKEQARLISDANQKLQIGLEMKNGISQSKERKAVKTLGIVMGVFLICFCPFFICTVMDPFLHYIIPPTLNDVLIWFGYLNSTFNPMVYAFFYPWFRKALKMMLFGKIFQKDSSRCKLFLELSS

hTA1 b2N = molecular target: T2, hTA1 b2N (Homo sapiens, UniProt Q96RJ0); test: GloSensor cAMP accumulation assay, b2N construct; conditions: b2N, n=2
T2 construct: read by me as the first 25 residues of β2AR (N); expressed in transfected cells; host or cells: HEK293T

hTA1 C178S = molecular target: T3, hTA1 C178S (Homo sapiens, UniProt Q96RJ0, C178S); test: GloSensor cAMP accumulation assay, C178S mutant; conditions: for C178S - Normalized Luminescence Counts (N=2): log[Compound], single replicates
T3 construct: expressed in transfected cells; host or cells: HEK293T
T3 sequence (Q96RJ0 1-339 C178S): T1 sequence (Q96RJ0 1-339 W264F) with C178S, F264W

hTA1 C13S = molecular target: T4, hTA1 C13S (Homo sapiens, UniProt Q96RJ0, C13S); test: GloSensor cAMP accumulation assay, C13S mutant; conditions: for C13S - Normalized Luminescence Counts (N=2): log[Compound], single wells
T4 construct: expressed in transfected cells; host or cells: HEK293T
T4 sequence (Q96RJ0 1-339 C13S): T1 sequence (Q96RJ0 1-339 W264F) with C13S, F264W

hTA1 T271N = molecular target: T5, hTA1 T271N (Homo sapiens, UniProt Q96RJ0, T271N); test: GloSensor cAMP accumulation assay, T271N mutant
T5 construct: expressed in transfected cells; host or cells: HEK293T
T5 sequence (Q96RJ0 1-339 T271N): T1 sequence (Q96RJ0 1-339 W264F) with F264W, T271N

hTA1 I290N = molecular target: T6, hTA1 I290N (Homo sapiens, UniProt Q96RJ0, I290N); test: GloSensor cAMP accumulation assay, I290N mutant;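 note: cells transiently co-expressing hTA1 and the GloSensor cAMP biosensor, luminescence read 30 min after compound addition at room temperature, efficacy scaled to the maximal β-PEA response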
T6 construct: expressed in transfected cells; host or cells: HEK293T
T6 sequence (Q96RJ0 1-339 I290N): T1 sequence (Q96RJ0 1-339 W264F) with F264W, I290N

[1] = W246F mutant (so in the source) minus WT average

T2 sequence (Q96RJ0 with tags, fused parts or gaps): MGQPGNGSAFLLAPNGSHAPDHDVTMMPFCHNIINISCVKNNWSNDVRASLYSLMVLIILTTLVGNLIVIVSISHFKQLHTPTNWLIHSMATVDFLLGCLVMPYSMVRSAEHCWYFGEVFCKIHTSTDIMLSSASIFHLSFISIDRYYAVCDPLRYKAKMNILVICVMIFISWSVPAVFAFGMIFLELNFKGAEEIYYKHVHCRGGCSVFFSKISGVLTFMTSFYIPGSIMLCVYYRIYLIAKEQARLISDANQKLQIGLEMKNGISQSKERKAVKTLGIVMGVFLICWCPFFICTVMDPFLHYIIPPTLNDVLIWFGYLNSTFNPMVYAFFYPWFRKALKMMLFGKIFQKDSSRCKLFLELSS

SMILES: NCCc1ccc(O)cc1 [TYR, tyramine]
- ΔEmax values (each mutant value - WT average) (hTA1 W264F; [1]): 2.816
- ΔpEC50 values (each mutant value - WT average) (hTA1 W264F; [1]): -1.54 and -1.2519
- EC50 (hTA1 W264F; W246F mutant (so in the source), each line an independent experiment, 3 replicates, read-out: pEC50 values (Mean) (converted)): 14.4 µM and 7.41 µM
- Emax values, Mean (hTA1 W264F; W246F mutant (so in the source), β-PEA = 100, each line an independent experiment, 3 replicates): 99.2183
- Emax (hTA1 W264F; W246F mutant (so in the source), β-PEA = 100, each line an independent experiment, 3 replicates, read-out: Emax values (Mean)): 102%
- EC50 (hTA1 W264F; W264F, n=2, read-out: EC50): 10.3 µM
- Emax (hTA1 W264F; W264F, n=2, read-out: Span ± SEM (Emax normalized to β-PEA)): 101 ± 1.29%
- EC50 (hTA1 b2N; read-out: EC50): 0.151 µM
- Emax (hTA1 b2N; read-out: Span ± SEM (Emax normalized to β-PEA)): 99.5 ± 1%
- ΔpEC50 values (each mutant value - WT average), Mean (hTA1 C178S; C178S, each row one experiment (N=2), 3 replicates): 0.02169 and 0.1822
- EC50 (hTA1 C178S; C178S, each row one experiment (N=2), 3 replicates, read-out: pEC50 values, Mean (converted)): 0.395 µM and 0.273 µM
- EC50 (hTA1 C178S; C178S, n=2, read-out: EC50): 0.328 µM
- Emax (hTA1 C178S; C178S, n=2, read-out: Span ± SEM (Emax normalized to β-PEA)): 98.4 ± 1.77%
- Emax values, Mean (hTA1 C178S; C178S, β-PEA = 100, each row one experiment (N=2), 3 replicates): 100.127
- Emax (hTA1 C178S; C178S, β-PEA = 100, each row one experiment (N=2), 3 replicates, read-out: Emax values, Mean): 96.6%
- C178S - Normalized Luminescence Counts (N=2) (hTA1 C178S; M = -5): 91.979 and 95.8576 and 102.026 and 75.3904 and 102.974 and 107.581
- C178S - Normalized Luminescence Counts (N=2) (hTA1 C178S; M = -5.522): 87.8668 and 77.3994 and 76.8387 and 82.4508 and 101.179 and 88.1949
- C178S - Normalized Luminescence Counts (N=2) (hTA1 C178S; M = -6): 67.8199 and 64.4086 and 66.1843 and 84.2459 and 87.7162 and 94.2082
- C178S - Normalized Luminescence Counts (N=2) (hTA1 C178S; M = -6.522): 42.5859 and 50.2963 and 40.4364 and 48.0464 and 47.119 and 50.6791
- C178S - Normalized Luminescence Counts (N=2) (hTA1 C178S; M = -7): 17.0716 and 19.2212 and 22.0717 and 25.7583 and 28.0918 and 27.3439
- C178S - Normalized Luminescence Counts (N=2) (hTA1 C178S; M = -7.522): 4.922 and 5.576 and 4.735 and 10.3511 and 8.496 and 10.8597
- C178S - Normalized Luminescence Counts (N=2) (hTA1 C178S; M = -8): 0.8565 and 3.099 and 2.0247 and 3.141 and 5.295 and 4.428
- C178S - Normalized Luminescence Counts (N=2) (hTA1 C178S; M = -8.522): -0.4052 and -0.03139 and 0.3892 and 0.9572 and 2.034 and 4.517
- C178S - Normalized Luminescence Counts (N=2) (hTA1 C178S; M = -9): -1.013 and -1.2 and 0.1555 and -0.5985 and 0.02978 and 0.3589
- C178S - Normalized Luminescence Counts (N=2) (hTA1 C178S; M = -9.522): -0.5454 and -1.1529 and -1.2 and -0.9575 and 1.615 and 1.376
- C178S - Normalized Luminescence Counts (N=2) (hTA1 C178S; M = -10): -0.4052 and -0.07812 and -0.966 and 0.5982 and 1.645 and 1.346
- C178S - Normalized Luminescence Counts (N=2) (hTA1 C178S; M = -10.522): -0.7791 and -0.3118 and -0.5921 and -2.214 and -0.2395 and -1.047
- C178S - Normalized Luminescence Counts (N=2) (hTA1 C178S; M = -11): -0.8258 and -0.3585 and -1.106 and 0.08961 and 2.782 and 2.932
- C178S - Normalized Luminescence Counts (N=2) (hTA1 C178S; M = -11.522): -0.1716 and 0.1555 and 0.1088 and 1.047 and 3.051 and 2.303
- C178S - Normalized Luminescence Counts (N=2) (hTA1 C178S; M = -12): -0.9193 and -0.3118 and -0.6389 and 0.6281 and 2.423 and 2.214
- C178S - Normalized Luminescence Counts (N=2) (hTA1 C178S; M = -12.522): 0.2023 and -0.07812 and -0.03139 and -1.077 and 1.944 and 2.603
- ΔpEC50 values (each mutant value - WT average) (hTA1 C13S; C13S): -0.3688 and -0.3329
- Emax values (hTA1 C13S; C13S, Mean of fit per experiment): 110.911
- Emax (hTA1 C13S; C13S, Mean of fit per experiment, read-out: Emax values): 93.7%
- EC50 (hTA1 C13S; C13S, n=2, read-out: EC50): 0.931 µM
- Emax (hTA1 C13S; C13S, n=2, read-out: Span ± SEM (Emax normalized to β-PEA)): 102 ± 8.61%
- EC50 (hTA1 C13S; hTA1 C13S, mean of 3 replicates, one line per independent experiment, read-out: pEC50 values, Mean (converted)): 0.97 µM and 0.893 µM
- C13S - Normalized Luminescence Counts (N=2) (hTA1 C13S; M = -5): 78.8304 and 97.2912 and 83.436 and 97.1609 and 112.12 and 105.729
- C13S - Normalized Luminescence Counts (N=2) (hTA1 C13S; M = -5.522): 59.6843 and 75.6711 and 68.2867 and 72.4375 and 86.5575 and 83.5764
- C13S - Normalized Luminescence Counts (N=2) (hTA1 C13S; M = -6): 42.8222 and 56.3728 and 40.1958 and 58.5139 and 61.7985 and 54.8367
- C13S - Normalized Luminescence Counts (N=2) (hTA1 C13S; M = -6.522): 23.1813 and 24.6658 and 21.4304 and 27.8641 and 32.7195 and 30.988
- EC50 (hTA1 T271N; T271N mutant, Figure 5B, each row one independent experiment (3 replicates), read-out: pEC50 values, Mean (converted)): 0.553 µM and 1.35 µM
- Emax values, Mean (hTA1 T271N; T271N mutant, Figure 5B, β-PEA = 100, each row one independent experiment (3 replicates)): 98.6225
- Emax (hTA1 T271N; T271N mutant, Figure 5B, β-PEA = 100, each row one independent experiment (3 replicates), read-out: Emax values, Mean): 106%
- EC50 (hTA1 T271N; T271N, n=2, read-out: EC50): 0.863 µM
- Emax (hTA1 T271N; T271N, n=2, read-out: Span ± SEM (Emax normalized to β-PEA)): 103 ± 3.93%
- EC50 (hTA1 I290N; I290N, n=2, read-out: EC50): 0.492 µM
- Emax (hTA1 I290N; I290N, n=2, read-out: Span ± SEM (Emax normalized to β-PEA)): 99.42 ± 0.19%
- cAMP accumulation response, single replicate values (source data, Supplementary Figure 5) (hTA1 I290N; hTA1 I290N (N=2), log[Compound], M = -5): 84.4195 and 103.709 and 90.7072 and 91.6949
- ΔpEC50 values (each mutant value - WT average), Mean (hTA1 I290N; hTA1 I290N mutant minus WT average): -0.07565 and -0.07195
- EC50 (hTA1 I290N; hTA1 I290N mutant, Figure 3B source data, each grid row a separate experiment, 3 replicates, read-out: pEC50 values (Mean) (converted)): 0.494 µM and 0.49 µM
- Emax values, Mean (hTA1 I290N; hTA1 I290N mutant, β-PEA set to 100, each grid row a separate experiment, 3 replicates): 99.2249
- Emax (hTA1 I290N; hTA1 I290N mutant, β-PEA set to 100, each grid row a separate experiment, 3 replicates, read-out: Emax values (Mean)): 99.6%
